In EP0194794A2, “Saccharide digestion inhibiting composition” (Takeda Chemical Industries, Ltd., priority 1985, dated 1986):
Marks after values point to notes of the source that are not given here.

How the values were obtained:
[1] = Property of feces in rats fed test ration, single organism (Reference Example 1); assay type: in vivo, male Jcl:SD rats; settings: 36 to 48 hours
Procedure: One gram of the mixture prepared in Example 1 and one gram of cells of lactic acid producing bacteria of a kind different from the bacteria used in Example 1 were mixed with 99 g of commercial powder feed (CE-2) to give a test ration. This ration was given to male Jcl:SD rats aged 7 weeks (6 animals per group) and the property of feces excreted after 36 to 48 hours was examined. Control animals received a mixture of 10 mg of AO-128 and 100 g of 'powder feed.

[2] = Influence on dietary hyperglycemia and hyperinsulinemia (Reference Example 3); assay type: in vivo, male Jcl:SD rats; settings: mean ± SD, n=6
Procedure: The rations prepared in the same manner as Reference Example 1 were given to 8-week-old male Jcl:SD rats (6 individuals per group) which had not been fed for 24 hours to investigate how the administration of lactic acid producing bacteria would influence the inhibitory effect of AO-128 on the hyperglycemia and hyperinsuleinemia following a diet intake.
Blood samples were collected from the tail vein immediately before feeding and 30, 60 and 120 minutes after feeding and the plasma glucose and insulin levels were determined.

[3] = 28-day feeding of rats with Zucker obesity (Reference Example 4); assay type: in vivo, male rats with Zucker obesity; settings: ration fed for 28 days
Procedure: In the analysis for body fat, the liver, the adipose tissue of the epididymis, the digestive tract and its contents were removed and the remainder was used as a sample. The rations containing the bacterial cells were prepared every other day and fed.

[4] = Property of feces in rats fed test ration, 2 or more bacteria (Reference Example 2); assay type: in vivo, Jcl:SD rats; settings: 36 to 48 hours
Procedure: Using 2 or more different bacteria, test rations were prepared by the same procedure as Reference Example 1. However, the amount of potato starch was reduced to adjust for the volume increase due to the cells to provide a composition containing cells of AO-128 and the composition was mixed with feed. The resulting ration was given to 7-week-old Jcl:SD rats (5 animals per group) and the property of feces after 36 to 48 hours was observed. Control rats received a mixture of 10 mg of AO-128 and 100 g of powder feed.

[5] = Acute toxicity study; assay type: in vivo, rats; settings: oral administration, 10 g/kg body weight
From the text: When this was mixed with 10^11 cells of any of the 3 different lactic acid producing bacteria used in the present invention and the mixture was orally administered at the same time as AO-128 (10 g/kg body weight), no influence was observed.

OCC(CO)N[C@H]1C[C@](O)(CO)[C@@H](O)[C@H](O)[C@H]1O [AO-128, N-(1,3-Dihydroxy-2-propyl)valiolamine]
Property of feces ± ([1]; number of rats (6 per group) with fecal masses, a diffusion of water noted on filter paper): 0 | Property of feces - ([1]; number of rats (6 per group) with fecal masses, no diffusion of water on filter paper): 0 | Property of feces + ([1]; number of rats (6 per group) with feces unformed (watery stool)): 6 | Plasma glucose level 30 min. ([2]; 30 minutes after feeding): 141± 8^a mg/dl | Plasma glucose level 60 min. ([2]; 60 minutes after feeding): 154±11^a mg/dl | Plasma glucose level 120 min. ([2]; 120 minutes after feeding): 152±11^a mg/dl | Plasma glucose level 0 min. ([2]; immediately before feeding, rats not fed for 24 hours): 101 ± 10 mg/dL | diarrhea ([3]; animals with diarrhea / animals in group): 6/6 | body fat ([3]; carcass without liver, epididymal adipose tissue, digestive tract, n=6): 19.8±5.4^b % | body weight gain ([3]; mean ± SD, n=6): 132±28^a g/28day | food consumption ([3]; mean ± SD, n=6): 602±56^a g/28day | food conversion ([3]; mean ± SD, n=6): 21.9±3.6^b % | Property of feces ± ([4]; number of rats (5 per group) with fecal masses, diffusion of water on filter paper): 2 | Property of feces - ([4]; number of rats (5 per group) with fecal masses, no diffusion of water on filter paper): 0 | Property of feces + ([4]; number of rats (5 per group) with feces unformed (watery stool)): 3 | death in acute toxicity study [5]: caused no death
